# Results as given in US20250206757A1 (GASHERBRUM BIO, INC., priority 2022, published 2025).
# Target: GLP-1 Receptor (Homo sapiens, UniProt P43220)
# Experiment: GLP-1R agonist cAMP stimulation assay (HEK293/GLP1R/CRE-LUC cells, HTRF cAMP dynamic 2 kit)
# Format: cell-based
# Settings: HEK293/CRE-Luc cell line stably expressing the GLP-1 Receptor; 30 min incubation at 37° C.
# Experimental: Activation of GLP-1 receptor is known to stimulate cyclic AMP (cAMP) production in cells which indicates primary coupling to the Gas subunit of the G protein heterotrimeric complex.
# To optimize functional activity directed toward Gas coupling, a HEK293/CRE-Luc cell line developed by HDB stably expressing the GLP-1 Receptor was used. 200× concentration of compound working solutions were prepared (Agilent Technologies Bravo) with 1/2 log serial dilution in 384-well Echo LDV plate (Labcyte, Cat #LP-0200). 50 nL/well 200× concentration of compound working solutions were moved to 384-well white low volume plate (Greiner, Cat #784075) using Labcyte ECHO550. 1×10^5 cells/mL HEK293/GLP1R/CRE-LUC (HD Biosciences) cell suspensions prepared with assay buffer [DPBS containing 0.5 mM IBMX (Sigma, Cat #15879) and 0.10% BSA (GENVIEW, Cat #FA016-100g)], 10 μL cell suspensions were added to each well of previous generated assay plate which already contains 50 nL compound at 200× concentration using ThermoFisher Multidrop Combi (1000 cells/well). Seal the plate and incubate at 37° C. with 5% CO2 for 30 min.
# After incubation the cAMP assay signal was generated using cAMP dynamic 2 Kit (Cisbio). 5 μL cAMP-d2 working solution was added to each well, followed with 5 μL Anti-cAMP antibody-cryptate working solution added to each well using ThermoFisher Multidrop Combi. Incubate at room temperature for 1 hour protected from light. Read the fluorescence at 665 and 615 nm with Reader PerkinElmer EnVision.
# Sequence of GLP-1 Receptor (P43220 24-463): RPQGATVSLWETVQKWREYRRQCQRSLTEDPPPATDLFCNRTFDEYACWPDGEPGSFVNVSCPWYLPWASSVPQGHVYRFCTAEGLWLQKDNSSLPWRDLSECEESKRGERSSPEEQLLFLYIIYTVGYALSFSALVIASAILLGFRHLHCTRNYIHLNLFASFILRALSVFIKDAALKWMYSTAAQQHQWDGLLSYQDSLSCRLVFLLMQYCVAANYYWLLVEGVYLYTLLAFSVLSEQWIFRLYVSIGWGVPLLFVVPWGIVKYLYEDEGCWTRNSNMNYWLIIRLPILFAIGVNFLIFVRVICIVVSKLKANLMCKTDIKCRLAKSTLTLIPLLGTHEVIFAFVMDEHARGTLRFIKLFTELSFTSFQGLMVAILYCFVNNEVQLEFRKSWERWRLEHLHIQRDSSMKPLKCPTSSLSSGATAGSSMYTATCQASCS
row,Compound,EC50
1,"COC(C)Cn1c(CN2CCc3cc(C(F)(F)F)c(OCc4ccc(Cl)cc4F)nc3C2)nc2cc(-c3nnc(C(F)(F)F)[nH]3)ncc21 (stereo in doubt) [Compound 81, 2-[(4-chloro-2-fluorophenyl)methoxy]-7-({3-[(2S)-2-methoxypropyl]-6-[5-(trifluoromethyl)-4H-1,2,4-triazol-3-yl]-3H-imidazo[4,5-c]pyridin-2-yl}methyl)-3-(trifluoromethyl)-5,6,7,8-tetrahydro-1,7-naphthyridine]",1 to 300 nM
2,"O=c1[nH]c(-c2cnc3c(c2)nc(CN2CCc4ccc(OCc5ccc(Cl)cc5F)nc4C2)n3C[C@@H]2CCO2)no1 [Compound 1, (S)-3-(2-((2-((4-chloro-2-fluorobenzyl)oxy)-5,8-dihydro-1,7-naphthyridin-7(6H)-yl)methyl)-3-(oxetan-2-ylmethyl)-3H-imidazo[4,5-b]pyridin-6-yl)-1,2,4-oxadiazol-5(4H)-one]",1 to 300 nM
3,"O=c1[nH]c(-c2ccc3nc(CN4CCc5ccc(OCc6ccc(Cl)cc6F)nc5C4)n(C[C@@H]4CCO4)c3c2)no1 [Compound 2, (S)-3-(2-((2-((4-chloro-2-fluorobenzyl)oxy)-5,8-dihydro-1,7-naphthyridin-7(6H)-yl)methyl)-1-(oxetan-2-ylmethyl)-1H-benzo[d]imidazol-6-yl)-1,2,4-oxadiazol-5(4H)-one]",1 to 300 nM
4,"N#Cc1nnc(-c2cc3nc(CN4CCc5cc(Cl)c(OCc6ccc(Cl)cc6F)nc5C4)n(C[C@@H]4CCO4)c3cn2)[nH]1 [Compound 8, 5-[2-({3-chloro-2-[(4-chloro-2-fluorophenyl)methoxy]-5,6,7,8-tetrahydro-1,7-naphthyridin-7-yl}methyl)-3-{[(2S)-oxetan-2-yl]methyl}-3H-imidazo[4,5-c]pyridin-6-yl]-4H-1,2,4-triazole-3-carbonitrile]",< 1 nM
5,"N#Cc1nnc(-c2cc3nc(CN4CCc5cc(Cl)c(OCc6c(F)cc(Cl)cc6F)nc5C4)n(C[C@@H]4CCO4)c3cn2)[nH]1 [Compound 9, 5-[2-({3-chloro-2-[(4-chloro-2,6-difluorophenyl)methoxy]-5,6,7,8-tetrahydro-1,7-naphthyridin-7-yl}methyl)-3-{[(2S)-oxetan-2-yl]methyl}-3H-imidazo[4,5-c]pyridin-6-yl]-4H-1,2,4-triazole-3-carbonitrile]",< 1 nM
6,"N#CC1(Cc2cc(-c3nnc(C(F)(F)F)[nH]3)cnc2CN2CCc3cc(C(F)(F)F)c(OCc4ccc(Cl)cc4F)nc3C2)CC1 [Compound 10, 1-{[2-({2-[(4-chloro-2-fluorophenyl)methoxy]-3-(trifluoromethyl)-5,6,7,8-tetrahydro-1,7-naphthyridin-7-yl}methyl)-5-[5-(trifluoromethyl)-4H-1,2,4-triazol-3-yl]pyridin-3-yl]methyl}cyclopropane-1-carbonitrile]",1 to 300 nM
7,"N#CC1(Cc2cc(-c3nnc(C(F)(F)F)[nH]3)cnc2CN2CCc3cc(Cl)c(OCc4ccc(Cl)cc4F)nc3C2)CC1 [Compound 11, 1-{[2-({3-chloro-2-[(4-chloro-2-fluorophenyl)methoxy]-5,6,7,8-tetrahydro-1,7-naphthyridin-7-yl}methyl)-5-[5-(trifluoromethyl)-4H-1,2,4-triazol-3-yl]pyridin-3-yl]methyl}cyclopropane-1-carbonitrile]",> 300 nM
8,"Cc1cc(-c2nnc(C(F)(F)F)[nH]2)cnc1CN1CCc2cc(Cl)c(OCc3ccc(Cl)cc3F)nc2C1 [Compound 12, 3-chloro-2-[(4-chloro-2-fluorophenyl)methoxy]-7-({3-methyl-5-[5-(trifluoromethyl)-4H-1,2,4-triazol-3-yl]pyridin-2-yl}methyl)-5,6,7,8-tetrahydro-1,7-naphthyridine]",> 300 nM
9,"Cc1cc(-c2nnc(C(F)(F)F)[nH]2)nnc1CN1CCc2cc(C(F)(F)F)c(OCc3ccc(Cl)cc3F)nc2C1 [Compound 13, 2-[(4-chloro-2-fluorophenyl)methoxy]-7-({4-methyl-6-[5-(trifluoromethyl)-4H-1,2,4-triazol-3-yl]pyridazin-3-yl}methyl)-3-(trifluoromethyl)-5,6,7,8-tetrahydro-1,7-naphthyridine]",> 300 nM
10,"Fc1cc(Cl)ccc1COc1nc2c(cc1C(F)(F)F)CCN(Cc1nc3cc(-c4nnn[nH]4)ncc3n1C[C@@H]1CCO1)C2 [Compound 14, 2-[(4-chloro-2-fluorophenyl)methoxy]-7-[(3-{[(2S)-oxetan-2-yl]methyl}-6-(1H-1,2,3,4-tetrazol-5-yl)-3H-imidazo[4,5-c]pyridin-2-yl)methyl]-3-(trifluoromethyl)-5,6,7,8-tetrahydro-1,7-naphthyridine]",< 1 nM

# Continued, values first:
row,EC50,Compound
1,1 to 300 nM,"Fc1cc(Cl)ccc1COc1nc2c(cc1C1CC1)CCN(Cc1nc3cc(-c4nnc(C(F)(F)F)[nH]4)cnc3n1C[C@@H]1CCO1)C2 [Compound 3, 2-[(4-chloro-2-fluorophenyl)methoxy]-3-cyclopropyl-7-[(3-{[(2S)-oxetan-2-yl]methyl}-6-[5-(trifluoromethyl)-4H-1,2,4-triazol-3-yl]-3H-imidazo[4,5-b]pyridin-2-yl)methyl]-5,6,7,8-tetrahydro-1,7-naphthyridine]"
2,< 1 nM,"Fc1cc(Cl)ccc1COc1nc2c(cc1C(F)(F)F)CCN(Cc1nc3cc(-c4nnc(C(F)(F)F)[nH]4)ncc3n1C[C@@H]1CCO1)C2 [Compound 4, 2-[(4-chloro-2-fluorophenyl)methoxy]-7-[(3-{[(2S)-oxetan-2-yl]methyl}-6-[5-(trifluoromethyl)-4H-1,2,4-triazol-3-yl]-3H-imidazo[4,5-c]pyridin-2-yl)methyl]-3-(trifluoromethyl)-5,6,7,8-tetrahydro-1,7-naphthyridine]"
3,< 1 nM,"Fc1cc(Cl)ccc1COc1nc2c(cc1Cl)CCN(Cc1nc3cc(-c4nnc(C(F)(F)F)[nH]4)ncc3n1C[C@@H]1CCO1)C2 [Compound 5, 3-chloro-2-[(4-chloro-2-fluorophenyl)methoxy]-7-[(3-{1[(2S)-oxetan-2-yl]methyl}-6-[5-(trifluoromethyl)-4H-1,2,4-triazol-3-yl]-3H-imidazo[4,5-c]pyridin-2-yl)methyl]-5,6,7,8-tetrahydro-1,7-naphthyridine]"
4,< 1 nM,"Fc1cc(Cl)ccc1COc1nc2c(cc1C(F)(F)F)CCN(Cc1nc3cc(-c4nnc(C(F)(F)F)[nH]4)nnc3n1C[C@@H]1CCO1)C2 [Compound 6, 2-[(4-chloro-2-fluorophenyl)methoxy]-7-[(7-{[(2S)-oxetan-2-yl]methyl}-3-[5-(trifluoromethyl)-4H-1,2,4-triazol-3-yl]-7H-imidazo[4,5-c]pyridazin-6-yl)methyl]-3-(trifluoromethyl)-5,6,7,8-tetrahydro-1,7-naphthyridine]"
5,< 1 nM,"Fc1cc(Cl)ccc1COc1nc2c(cc1Cl)CCN(Cc1nc3cc(-c4nnc(C(F)(F)F)[nH]4)nnc3n1C[C@@H]1CCO1)C2 [Compound 7, 3-chloro-2-[(4-chloro-2-fluorophenyl)methoxy]-7-[(7-{[(2S)-oxetan-2-yl]methyl}-3-[5-(trifluoromethyl)-4H-1,2,4-triazol-3-yl]-7H-imidazo[4,5-c]pyridazin-6-yl)methyl]-5,6,7,8-tetrahydro-1,7-naphthyridine]"
6,< 1 nM,"Fc1cc(Cl)ccc1COc1nc2c(cc1C(F)(F)F)CCN(Cc1nc3cc(-c4nnn[nH]4)cnc3n1C[C@@H]1CCO1)C2 [Compound 15, 2-[(4-chloro-2-fluorophenyl)methoxy]-7-[(3-{[(2S)-oxetan-2-yl]methyl}-6-(1H-1,2,3,4-tetrazol-5-yl)-3H-imidazo[4,5-b]pyridin-2-yl)methyl]-3-(trifluoromethyl)-5,6,7,8-tetrahydro-1,7-naphthyridine]"
